Consider 18 compounds from PubChem BioAssay (NCI).

SMILES strings stand for the structures. “And” between values parts separate entries of the source, which are not always exact repeats. Equal values may be shown once.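 Step 1: Grow cells in 96-well plates. Step 2: Expose to compound for 48 hours at 5 concentrations. Step 3: Interpolate endpoints linearly; if unreached, use highest concentration. GI50 is the concentration that inhibits growth by half. Definition used: TGI = concentration required for complete inhibition of growth.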

The subject of the first assay is 786-0 renal. Description: growth of human tumour cells (NCI), 48 h.
On to `CCOC(=O)[C@]1(OC(C)=O)C[C@H](OC(C)=O)[C@@H](C(F)COP(=O)(OCc2ccccc2)OCc2ccccc2)O1` (stereo partly specified), for which the GI50 is 39 µM and > 100 µM; the TGI is more than 100 µM.
In the case of `CC[C@@]1(O)C[C@H](OC2CC(N(C)C)C(O)C(C)O2)c2c(O)c3c(c(O)c2[C@H]1OC1CC(N(C)C)C(O)C(C)O1)C(=O)c1cccc(O)c1C3=O` (stereo partly specified), the GI50 was less than 0.01 µM.
For the compound `CC1(C)CCc2c(c3c(c4c(=O)c(O)c(-c5ccc(O)cc5)oc24)OC(C)(C)CC3)O1`, the GI50 was 37.7 µM and the TGI was more than 100 µM.
In the case of `O=C(Nc1ccccc1)NS(=O)(=O)c1ccc(-n2nc3c(c2-c2cccs2)Cc2ccccc2-3)cc1`, the GI50 was 17.6 µM and the TGI is 35.2 µM.
For `CCCCCN(CCCCC)CC(O)c1cc(C)c2ccc3cc(C(C)C)ccc3c2c1` (stereo unspecified), the GI50 is 1.79 µM and the TGI was determined as 3.41 µM.
Regarding `CC1=C(C(=O)Nc2ccc(Cl)c(Cl)c2)C(c2cccc(Oc3ccccc3)c2)NC(=S)N1` (stereo unspecified), the GI50 was 8.29 µM and the TGI was 17.4 µM.
For the compound `CSc1nc2c(c(=O)[nH]1)N=C1c3ccccc3C(=O)C1C(c1ccccc1)N2` (stereo unspecified), the GI50 was 6.44 µM and the TGI was more than 100 µM.
The corresponding values for `C=C(CN1CCN(c2ccc(Cl)cc2F)CC1)c1ccc(C(=O)Nc2ccccc2N)cc1` are 2.28 µM and more than 100 µM.
On to `CCCCC(=O)OCC(=O)[C@]1(O)Cc2c(O)c3c(c(O)c2[C@@H](OC2CC(NC(=O)C(F)(F)F)C(O)C(C)O2)C1)C(=O)c1c(OC)cccc1C3=O` (stereo partly specified), for which the TGI is 1.35 µM.
For the compound `CCN(CCO)CC1CCCC2CCCCC21` (stereo unspecified), the TGI is more than 100 µM.
For the compound `NC(Cc1c[nH]c2c(O)cccc12)C(=O)O` (stereo unspecified), the GI50 is more than 100 µM and the TGI is more than 100 µM.
Turning to `CCCCOC(=O)C1OC(O[C@H]2CCC3(C)C(CCC4(C)C3CC=C3C5CC(C)(C)CCC5(C(=O)O)CC[C@]34C)C2(C)C)C(OC2OC(CO)C(O)C(O)C2O)C(OC2OC(CO)C(O)C(O)C2O)C1O` (stereo partly specified), the GI50 is 26.2 µM and the TGI was determined as 70.9 µM.
Regarding `Cn1cc(C2=C(c3cn(C)c4ncccc34)C(=O)NC2=O)c2ccccc21`, the GI50 is 8.72 µM and the TGI was more than 25 µM.
With `NNC(=O)Nc1cccnc1`, the TGI is more than 100 µM.
As for `C#Cc1ccc(-n2c(/C=C/c3ccc(C(F)(F)F)cc3)nc3ncccc3c2=O)cc1`, the GI50 is 2.06 µM and the TGI amounted to 3.7 µM.
`CCCCCN(CCCCC)CCCNc1c2c(nc3ccc(Cl)cc13)CCCC2`: the GI50 was 3.91 µM and the TGI amounted to 13.6 µM.
`C=C1C(=O)C23CC1CCC2C12CO[C@@H]4OCC(C)(CC[C@@H]1OC3=O)C42` (stereo partly specified) came in with a TGI of 5.71 µM.
Same read-out and setting: the value for `CN/N=C(/Cc1occc(=O)c1O)C(=O)Nc1ccccc1C` was more than 100 µM.

The subject of a further assay is A498 renal. Description: growth of human tumour cells (NCI), 48 h.
Consider `CCOC(=O)[C@]1(OC(C)=O)C[C@H](OC(C)=O)[C@@H](C(F)COP(=O)(OCc2ccccc2)OCc2ccccc2)O1` (stereo partly specified), for which the GI50 is 24.7 µM and > 100 µM; the TGI was 52.8 µM and > 100 µM.
As for `CC[C@@]1(O)C[C@H](OC2CC(N(C)C)C(O)C(C)O2)c2c(O)c3c(c(O)c2[C@H]1OC1CC(N(C)C)C(O)C(C)O1)C(=O)c1cccc(O)c1C3=O` (stereo partly specified), the GI50 was less than 0.01 µM.
As for `CCCCCN(CCCCC)CC(O)c1cc(C)c2ccc3cc(C(C)C)ccc3c2c1` (stereo unspecified), the GI50 was 1.56 µM and the TGI was 2.94 µM.
For `CSc1nc2c(c(=O)[nH]1)N=C1c3ccccc3C(=O)C1C(c1ccccc1)N2` (stereo unspecified), the GI50 is 2 µM and the TGI was found to be 38 µM.
Take `C=C(CN1CCN(c2ccc(Cl)cc2F)CC1)c1ccc(C(=O)Nc2ccccc2N)cc1`: the GI50 was 3.03 µM and the TGI is more than 80.4 µM.
Turning to `CCCCC(=O)OCC(=O)[C@]1(O)Cc2c(O)c3c(c(O)c2[C@@H](OC2CC(NC(=O)C(F)(F)F)C(O)C(C)O2)C1)C(=O)c1c(OC)cccc1C3=O` (stereo partly specified), the TGI was 0.948 µM.
On the same count and under the same terms, the value for `CCN(CCO)CC1CCCC2CCCCC21` (stereo unspecified) was more than 100 µM.
`Cn1cc(C2=C(c3cn(C)c4ncccc34)C(=O)NC2=O)c2ccccc21`: the GI50 was 3.73 µM and the TGI turned out to be 11 µM.
With `NNC(=O)Nc1cccnc1`, the TGI is more than 100 µM.
For `C#Cc1ccc(-n2c(/C=C/c3ccc(C(F)(F)F)cc3)nc3ncccc3c2=O)cc1`, the GI50 is 2.34 µM and the TGI was 5.76 µM.
As to `CCCCCN(CCCCC)CCCNc1c2c(nc3ccc(Cl)cc13)CCCC2`, the GI50 was 1.72 µM and the TGI amounted to 8.94 µM.
Turning to `C=C1C(=O)C23CC1CCC2C12CO[C@@H]4OCC(C)(CC[C@@H]1OC3=O)C42` (stereo partly specified), the TGI amounted to 34.8 µM.
Regarding `CN/N=C(/Cc1occc(=O)c1O)C(=O)Nc1ccccc1C`, the TGI was more than 100 µM.

The subject of another assay is EKVX NSCLC. The experiment in a line: growth of human tumour cells (NCI), 48 h.
`CCOC(=O)[C@]1(OC(C)=O)C[C@H](OC(C)=O)[C@@H](C(F)COP(=O)(OCc2ccccc2)OCc2ccccc2)O1` (stereo partly specified): the GI50 is 26.3 µM and > 100 µM; the TGI is 71.3 µM and > 100 µM.
`CC[C@@]1(O)C[C@H](OC2CC(N(C)C)C(O)C(C)O2)c2c(O)c3c(c(O)c2[C@H]1OC1CC(N(C)C)C(O)C(C)O1)C(=O)c1cccc(O)c1C3=O` (stereo partly specified): the GI50 was less than 0.01 µM; the TGI is 0.538 µM and 0.167 µM.
For `CC1(C)CCc2c(c3c(c4c(=O)c(O)c(-c5ccc(O)cc5)oc24)OC(C)(C)CC3)O1`, the GI50 was 34.5 µM and the TGI is more than 100 µM.
In the same order, the values of `O=C(Nc1ccccc1)NS(=O)(=O)c1ccc(-n2nc3c(c2-c2cccs2)Cc2ccccc2-3)cc1` are 26.1 µM and 87.2 µM.
Take `CCCCCN(CCCCC)CC(O)c1cc(C)c2ccc3cc(C(C)C)ccc3c2c1` (stereo unspecified): the GI50 is 1.76 µM and the TGI is 3.34 µM.
For the compound `CC1=C(C(=O)Nc2ccc(Cl)c(Cl)c2)C(c2cccc(Oc3ccccc3)c2)NC(=S)N1` (stereo unspecified), the GI50 was 7.55 µM and the TGI is 15 µM.
For `CSc1nc2c(c(=O)[nH]1)N=C1c3ccccc3C(=O)C1C(c1ccccc1)N2` (stereo unspecified), the GI50 is 12.8 µM and the TGI was more than 100 µM.
In the same order, the values of `C=C(CN1CCN(c2ccc(Cl)cc2F)CC1)c1ccc(C(=O)Nc2ccccc2N)cc1` are 11.5 µM and more than 100 µM.
